Laboratory results as given in paper PMC6783499, “Heteroglycoclusters With Dual Nanomolar Affinities for the Lectins LecA and LecB From Pseudomonas aeruginosa” (Frontiers in Chemistry, 2019).

Target: T1, LecB (Pseudomonas aeruginosa, UniProt Q9HYN5)
T1 construct: made in house; host or cells: Escherichia coli BL21(DE3)
Assay: biochemical
Assay type: binding
Conditions: for n (stoichiometry, glycocluster molecules per lectin monomer): pH 7.5; for –ΔG / –ΔH / −TΔS: per mole of glycocluster; for α (relative potency compared to the monovalent compound) / β (relative potency per sugar unit): relative to αFuc-OMe
Method: The resulting hGCs were tested in solution with lectins by Isothermal Titration Calorimetry (Table 1) and their binding properties were compared with homoclusters 15–20 (Berthet et al., [2013]; Thomas et al., [2015b]) displaying either 4 and 16 βGal or αFuc units attached with an oxime or a triazole linker (Figure 3). […] Experiments were performed in direct injection mode (i.e., ligand in syringe and protein in cell) to minimize aggregation problems.
All chemical reagents were purchased from Aldrich (Saint Quentin Fallavier, France) or Acros (Noisy-Le-Grand, France). All protected amino acids and Fmoc-Gly-Sasrin® resin was obtained from Advanced ChemTech Europe (Brussels, Belgium). For peptides and glycopeptides, analytical RP-HPLC was performed on Waters system equipped with a Waters 2695 separations module and a Waters 2487 Dual Absorbance UV/Visible Detector. Analysis was carried out at 1.0 mL/min (EC 125/3 nucleosil 300-5 C18) with UV monitoring at 214 nm and 250 nm using a linear A–B gradient (buffer A: 0.09% CF3CO2H in water; buffer B: 0.09% CF3CO2H in 90% acetonitrile). Purifications were carried out at 22.0 mL/min (VP 250/21 nucleosil 100-7 C18) with UV monitoring at 214 nm and 250 nm using a linear A–B gradient. HRMS and ESI-MS and HRMS spectra of peptides and glycopeptides were measured on an Esquire 3000 spectrometer from Bruker. Lectins LecA and LecB were produced in recombinant form in Escherichia coli BL21(DE3) as described previously (Mitchell et al., [2005]; Blanchard et al., [2008]).
Other compounds were assayed with a VP-ITC isothermal titration calorimeter (Microcal). The experiments were carried out at 25°C. All glycocompounds and lectins LecB and LecA were dissolved in the same buffer composed of 20 mM Tris with 100 mM NaCl and 0.1 mM CaCl2 at pH 7.5. For PEAQ-ITC, the lectins were placed in the microcalorimeter cell (200 μL) at concentrations varying from 35 to 70 μM. […] For VP-ITC, the microcalorimeter cell (1.447 mL) contained the lectins with concentrations between 30 and 100 μM. A total of 30 injections of 10 μL were performed intervals of 5 min while stirring at 310 rpm with glycoclusters concentrations varying from […]. The experimental data were fitted to a theoretical titration curve using the Microcal PEAQ-ITC analysis software, with ΔH (enthalpy change), Ka (association constant), and N (number of binding sites per monomer) as adjustable parameters. Dissociation constant (Kd), free energy change (ΔG), and entropy contributions (TΔS) were derived from the previous ones. Two or three independent titrations were performed for each ligand tested.

[1] = ITC, 25°C, 20 mM Tris, 100 mM NaCl, 0.1 mM CaCl2, pH 7.5, ligand in syringe

T1 sequence (Q9HYN5 entry or part of it): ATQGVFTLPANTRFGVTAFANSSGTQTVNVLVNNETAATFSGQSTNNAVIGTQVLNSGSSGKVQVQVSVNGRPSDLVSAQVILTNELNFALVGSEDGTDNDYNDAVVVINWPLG

| Compound | –ΔH (binding enthalpy) (ITC) | n (stoichiometry, glycocluster molecules per lectin monomer) (ITC, 25°C) | –ΔG (ITC, 25°C) | –ΔH (ITC, 25°C) | −TΔS (ITC, 25°C) | Kd [1] | α (relative potency compared to the monovalent compound) | Kd (ITC, rounded value) | β (relative potency per sugar unit) | binding improvement on multimerisation of tetravalent to hexadecavalent dendrimer (19 versus tetravalent 15) | binding to LecB in words (abstract) |
| --- | --- | --- | --- | --- | --- | --- | --- | --- | --- | --- | --- |
| C[C@@H]1NC(=O)[C@H](CCCCNC(=O)/C=N/O[C@@H]2O[C@@H](C)[C@@H](O)[C@@H](O)[C@@H]2O)NC(=O)CNC(=O)[C@@H]2CCCN2C(=O)[C@H](CCCCNC(=O)/C=N/O[C@@H]2O[C@@H](C)[C@@H](O)[C@@H](O)[C@@H]2O)NC(=O)[C@H](CCCCNC(=O)CO/N=C/C(=O)NCCCC[C@@H]2NC(=O)CNC(=O)[C@@H]3CCCN3C(=O)[C@H](CCCCNC(=O)/C=N/OCC(=O)NCCCC[C@@H]3NC(=O)[C@H](CCCCNC(=O)/C=N/O[C@@H]4O[C@@H](C)[C@@H](O)[C@@H](O)[C@@H]4O)NC(=O)CNC(=O)[C@@H]4CCCN4C(=O)[C@H](CCCCNC(=O)/C=N/O[C@@H]4O[C@@H](C)[C@@H](O)[C@@H](O)[C@@H]4O)NC(=O)[C@H](C)NC(=O)[C@H](CCCCNC(=O)/C=N/O[C@@H]4O[C@@H](C)[C@@H](O)[C@@H](O)[C@@H]4O)NC(=O)CNC(=O)[C@@H]4CCCN4C(=O)[C@H](CCCCNC(=O)/C=N/O[C@@H]4O[C@@H](C)[C@@H](O)[C@@H](O)[C@@H]4O)NC3=O)NC(=O)[C@H](CCCCN)NC(=O)[C@H](CCCCNC(=O)CO/N=C/C(=O)NCCCC[C@@H]3NC(=O)[C@H](CCCCn4cc(CO[C@H]5O[C@H](CO)[C@@H](O)[C@H](O)[C@@H]5O)nn4)NC(=O)CNC(=O)[C@@H]4CCCN4C(=O)[C@H](CCCCn4cc(CO[C@H]5O[C@H](CO)[C@@H](O)[C@H](O)[C@@H]5O)nn4)NC(=O)[C@H](C)NC(=O)[C@H](CCCCn4cc(CO[C@H]5O[C@H](CO)[C@@H](O)[C@H](O)[C@@H]5O)nn4)NC(=O)CNC(=O)[C@@H]4CCCN4C(=O)[C@H](CCCCn4cc(CO[C@H]5O[C@H](CO)[C@@H](O)[C@H](O)[C@@H]5O)nn4)NC3=O)NC(=O)CNC(=O)[C@@H]3CCCN3C(=O)[C@H](CCCCNC(=O)CO/N=C/C(=O)NCCCC[C@@H]3NC(=O)[C@H](CCCCn4cc(CO[C@H]5O[C@H](CO)[C@@H](O)[C@H](O)[C@@H]5O)nn4)NC(=O)CNC(=O)[C@@H]4CCCN4C(=O)[C@H](CCCCn4cc(CO[C@H]5O[C@H](CO)[C@@H](O)[C@H](O)[C@@H]5O)nn4)NC(=O)[C@H](C)NC(=O)[C@H](CCCCn4cc(CO[C@H]5O[C@H](CO)[C@@H](O)[C@H](O)[C@@H]5O)nn4)NC(=O)CNC(=O)[C@@H]4CCCN4C(=O)[C@H](CCCCn4cc(CO[C@H]5O[C@H](CO)[C@@H](O)[C@H](O)[C@@H]5O)nn4)NC3=O)NC(=O)[C@H](C)NC2=O)NC(=O)[C@H](CCCCNC(=O)/C=N/O[C@@H]2O[C@@H](C)[C@@H](O)[C@@H](O)[C@@H]2O)NC(=O)CNC(=O)[C@@H]2CCCN2C(=O)[C@H](CCCCNC(=O)/C=N/O[C@@H]2O[C@@H](C)[C@@H](O)[C@@H](O)[C@@H]2O)NC1=O [Compound 12] | 50.7 kcal/mol | 0.08 | 9.66 kcal/mol | 50.43 ± 0.72 kcal/mol | 40.77 kcal/mol | 85 ± 16 nM | 5.1 | – | – | – | – |
| C[C@@H]1NC(=O)[C@H](CCCCn2cc(CO[C@@H]3O[C@@H](C)[C@@H](O)[C@@H](O)[C@@H]3O)nn2)NC(=O)CNC(=O)[C@@H]2CCCN2C(=O)[C@H](CCCCn2cc(CO[C@@H]3O[C@@H](C)[C@@H](O)[C@@H](O)[C@@H]3O)nn2)NC(=O)[C@H](CCCCN)NC(=O)[C@H](CCCCn2cc(CO[C@@H]3O[C@@H](C)[C@@H](O)[C@@H](O)[C@@H]3O)nn2)NC(=O)CNC(=O)[C@@H]2CCCN2C(=O)[C@H](CCCCn2cc(CO[C@@H]3O[C@@H](C)[C@@H](O)[C@@H](O)[C@@H]3O)nn2)NC1=O [Compound 16] | – | 0.19 | 8.8 kcal/mol | 28.56 ± 0.24 kcal/mol | 19.8 kcal/mol | 367 ± 26 nM | 1.2 | 300 nM | 0.3 | – | – |
| C[C@@H]1NC(=O)[C@H](CCCCNC(=O)/C=N/OCC(=O)NCCCC[C@@H]2NC(=O)[C@H](CCCCNC(=O)/C=N/O[C@@H]3O[C@@H](C)[C@@H](O)[C@@H](O)[C@@H]3O)NC(=O)CNC(=O)[C@@H]3CCCN3C(=O)[C@H](CCCCNC(=O)/C=N/O[C@@H]3O[C@@H](C)[C@@H](O)[C@@H](O)[C@@H]3O)NC(=O)[C@H](C)NC(=O)[C@H](CCCCNC(=O)/C=N/O[C@@H]3O[C@@H](C)[C@@H](O)[C@@H](O)[C@@H]3O)NC(=O)CNC(=O)[C@@H]3CCCN3C(=O)[C@H](CCCCNC(=O)/C=N/O[C@@H]3O[C@@H](C)[C@@H](O)[C@@H](O)[C@@H]3O)NC2=O)NC(=O)CNC(=O)[C@@H]2CCCN2C(=O)[C@H](CCCCNC(=O)/C=N/OCC(=O)NCCCC[C@@H]2NC(=O)[C@H](CCCCNC(=O)/C=N/O[C@@H]3O[C@@H](C)[C@@H](O)[C@@H](O)[C@@H]3O)NC(=O)CNC(=O)[C@@H]3CCCN3C(=O)[C@H](CCCCNC(=O)/C=N/O[C@@H]3O[C@@H](C)[C@@H](O)[C@@H](O)[C@@H]3O)NC(=O)[C@H](C)NC(=O)[C@H](CCCCNC(=O)/C=N/O[C@@H]3O[C@@H](C)[C@@H](O)[C@@H](O)[C@@H]3O)NC(=O)CNC(=O)[C@@H]3CCCN3C(=O)[C@H](CCCCNC(=O)/C=N/O[C@@H]3O[C@@H](C)[C@@H](O)[C@@H](O)[C@@H]3O)NC2=O)NC(=O)[C@H](CCCCN)NC(=O)[C@H](CCCCNC(=O)/C=N/OCC(=O)NCCCC[C@@H]2NC(=O)[C@H](CCCCNC(=O)/C=N/O[C@@H]3O[C@@H](C)[C@@H](O)[C@@H](O)[C@@H]3O)NC(=O)CNC(=O)[C@@H]3CCCN3C(=O)[C@H](CCCCNC(=O)/C=N/O[C@@H]3O[C@@H](C)[C@@H](O)[C@@H](O)[C@@H]3O)NC(=O)[C@H](C)NC(=O)[C@H](CCCCNC(=O)/C=N/O[C@@H]3O[C@@H](C)[C@@H](O)[C@@H](O)[C@@H]3O)NC(=O)CNC(=O)[C@@H]3CCCN3C(=O)[C@H](CCCCNC(=O)/C=N/O[C@@H]3O[C@@H](C)[C@@H](O)[C@@H](O)[C@@H]3O)NC2=O)NC(=O)CNC(=O)[C@@H]2CCCN2C(=O)[C@H](CCCCNC(=O)/C=N/OCC(=O)NCCCC[C@@H]2NC(=O)[C@H](CCCCNC(=O)/C=N/O[C@@H]3O[C@@H](C)[C@@H](O)[C@@H](O)[C@@H]3O)NC(=O)CNC(=O)[C@@H]3CCCN3C(=O)[C@H](CCCCNC(=O)/C=N/O[C@@H]3O[C@@H](C)[C@@H](O)[C@@H](O)[C@@H]3O)NC(=O)[C@H](C)NC(=O)[C@H](CCCCNC(=O)/C=N/O[C@@H]3O[C@@H](C)[C@@H](O)[C@@H](O)[C@@H]3O)NC(=O)CNC(=O)[C@@H]3CCCN3C(=O)[C@H](CCCCNC(=O)/C=N/O[C@@H]3O[C@@H](C)[C@@H](O)[C@@H](O)[C@@H]3O)NC2=O)NC1=O [Compound 19] | – | 0.06 | 10 kcal/mol | 76.72 ± 3.35 kcal/mol | 66.68 kcal/mol | 44 ± 5 nM | 9.8 | – | 0.6 | 10 fold | nanomolar affinity |
